Columns and labels:
[1] = system: protein tau hyperphosphorylation on AT-8 (pSer199-202/Thr205) epitope; assay: AT8 immunohistochemistry with quantitative image analysis after six months in food; assay type: in vivo, THY-Tau22 mice; conditions: for protein tau phosphorylation on AT-8 epitope in cortex, vs vehicle: n=9; for decrease of the number of AT8-positive neuronal cells, cortex: significant
Excerpt: (§1) 2-(Cyclohexylmethyl)-N-{2-[(2S)-1-methylpyrrolidin-2-yl]ethyl}-1,2,3,4-tetrahydroisoquinoline-7-sulfonamide difumarate monohydrate was administrated as a supplement in food at doses of 0.00034%, 0.0034% and 0.034% for six months in THY-Tau22 and wild type mice as follows: • Tg Veh (n=17) • Tg Active Ingredient—0.034% (n=17) • Tg Active Ingredient—0.0034% (n=17) • Tg Active Ingredient—0.00034% (n=17) • WT Veh (n=17) • WT Active Ingredient—0.034% (n=17) • WT Active Ingredient—0.0034% (n=17) • WT Active Ingredient—0.00034% (n=17) • WT groups treated with Active Ingredient are not used in the biochemical and histological studies.
After mice were decapitated, brains were removed and one hemibrain (used for histopathological studies) was immersion-postfixed for seven days at 4° C. with 4% formaldehyde (Carlo Erba/code 415691). The other hemibrain was prepared for biochemical quantitative measurements.
Post-fixed hemibrains were incubated in phosphate-buffered saline (PBS, P 3813-10PAK, Sigma), transferred to a 20% sucrose solution (code 27480.294—Prolabo) for 48 hours at 4° C. to ensure good cryopreservation of tissues during subsequent freezing. For freezing, hemibrains were immersed for one minute in isopentane solution (Ref. No. 24872-323—Prolabo) cooled with dry ice to between −25° C. and −30° C. and then stored at −25° C.
The entire hemibrains were cut with a cryostat (Microm, HM560). Serial sagittal brain tissue sections were collected onto Superfrost plus microscope glass slides (VWR) and then stored at −20° C. (sections of 20 μm of thickness), or placed in PBS-sodium azide 0.1% (S-2002, Sigma) containing wells to avoid any contamination and stored at 4° C. (sections of 30 μm of thickness).
Hyperphosphorylated microtubule-associated protein tau is the major component of the paired helical filament. Phosphorylation-dependent anti-tau antibodies can be used to identify specific amino acids that are phosphorylated in tau from normal brain and AD brain. For example, the monoclonal antibody, AT8, is widely used. Antibody that can detect the phosphorylated serine 202 and the phosphorylated threonine 205 epitopes of phosphorylated tau (AT8 epitope (M. Goedert et al., Neuroscience Letters, (1995) 189, 3, pp. 167-169)).
An immunohistochemical protocol using the AT8 antibody and based upon the avidin-biotin horseradish peroxidase method was applied on 30 μm free-floating sections. The detailed protocol is as follows:
The following reagents are used: 0.1M PBS buffer in 1 liter of H2O (2.23 g of NaH2PO4, 2H2O (Prolabo Ref. No. 33 616.262), 29 g of Na2HPO4, 12 H2O (Prolabo Ref. No. 28 028.298), 9 g of NaCl (Prolabo Ref. No. 27 810.295)); PBS-Triton (0.15%) buffer Triton×100 (Sigma Ref. No. 23 479-9) (PBS-T) (1 l of 0.1M PBS buffer, 1.5 ml of Triton); 0.2M PBS buffer in 1 liter of H2O (4.46 g of NaH2PO4, 2H2O, 58 g of Na2HPO4, 12H2O, 18 g of NaCl); 30% H2O2 (Sigma Ref. No. H 1009); 3,3′-diaminobenzidine tetrahydrochloride (Sigma Ref. No. D9015, 100 mg stored at −20° C.); Vectastain® ABC Kit (Ref. No. PK 4000, Vector); BSA: bovine serum albumin (Sigma Ref. No. A8022).
Sections were preincubated for 3×10 minutes in 0.1 M-PBS-0.15% triton solution and then in 0.1M-PBS-1.5% hydrogen peroxide-50% methanol at room temperature for 30 minutes. After 3 washings in 0.1 M-PBS-0.15% triton, they were further incubated in blocking buffer [i.e., in BSA diluted at 10% in 0.01 M PBS] for 30 minutes. They were incubated at room temperature overnight with mouse anti-human PHF-Tau monoclonal antibody (clone AT8, Thermo Science, MN1020, dilution 1/500 in 0.1M PBS-0.05% Triton) and then with the secondary antibody (anti-mouse IgG biotinylated whole antibody from goat, Amersham, RPN1177, dilution 1/500 in 0.1M PBS-0.05% Triton) for 1 h 30. They were finally incubated in peroxidase-coupled avidin complex (Vectastain ABC kit, Vector Laboratories, dilution 1/400 in 0.1M PBS) for 30 minutes. […]

MIP-1α gene expression = assay: mRNA expression of MIP-1α in hippocampus by QPCR after six months in food; assay type: in vivo, THY-Tau22 mice
Excerpt: as §1
1. […] To assess the quality and concentration of the total RNA, 1 μl was analyzed on an RNA LabChip (Agilent) using a 2100 Bioanalyser, (Agilent Technologies). […]
2 μg of total RNA from each mouse was reverse transcribed with oligo (dT)16 and random primers using a High-Capacity cDNA Archive Kit (Applied Biosystems), following the manufacturer recommendations. […] For real time PCR, the housekeeping gene R.L37A, was amplified using a quantitect primer assay from Qiagen (QT00252266) and MIP1 alpha was amplified using the following primers (5′-[…]-3′) SEQ ID NO: 1; (5′-[…]-3′) SEQ ID NO: 2. […]

## CN1CCC[C@H]1CCNS(=O)(=O)c1ccc2c(c1)CN(CC1CCCCC1)CC2 [2-(cyclohexylmethyl)-N-{2-[(2S)-1-methylpyrrolidin-2-yl]ethyl}-1,2,3,4-tetrahydroisoquinoline-7-sulfonamide difumarate monohydrate]
[1]; 0.0034% in food, six months
  protein tau phosphorylation on AT-8 epitope in cortex, vs vehicle: statistical significant decrease
  decrease of the number of AT8-positive neuronal cells, cortex: −47%
[1]; 0.0034% in food, six months, qualitatively observed
  intensity of AT8-immunostaining within neuronal cell bodies and fibers, cortex: decrease
[1]; 0.034% in food, six months
  protein tau phosphorylation on AT-8 epitope in cortex, vs vehicle: statistical significant decrease
  decrease of the number of AT8-positive neuronal cells, cortex: −32%
[1]; six months in food
  AT8-positive neuronal cell number in other ROIs (amygdala, CA1 and dentate gyrus hippocampal subareas): No significant decrease
MIP-1α gene expression; 0.00034% in food
  MIP-1α gene expression in hippocampus, vs vehicle: statistical significant decrease
MIP-1α gene expression; 0.0034% in food
  MIP-1α gene expression in hippocampus, vs vehicle: statistical significant decrease

Reference: patent US9789102B2, “H3 receptor antagonist for use in the treatment of alzheimer's disease” (SANOFI, priority 2012, dated 2017)
